Experimental data: patent publication US8481738B2, “Gonadotropin-releasing hormone receptor antagonists and methods relating thereto” (Neurocrine Biosciences, Inc., priority 2007, dated 2013)

target: T1, human GnRH receptor (Homo sapiens, UniProt P30968); experiment: Peptide competition radioligand binding displacement assay, human GnRH receptor membranes; settings: one or more of the peptide competition human receptor binding assays
T1 construct: expressed in transfected cells; host or cells: RBL cells, stably transfected (in general)
T1 sequence (P30968 1-328): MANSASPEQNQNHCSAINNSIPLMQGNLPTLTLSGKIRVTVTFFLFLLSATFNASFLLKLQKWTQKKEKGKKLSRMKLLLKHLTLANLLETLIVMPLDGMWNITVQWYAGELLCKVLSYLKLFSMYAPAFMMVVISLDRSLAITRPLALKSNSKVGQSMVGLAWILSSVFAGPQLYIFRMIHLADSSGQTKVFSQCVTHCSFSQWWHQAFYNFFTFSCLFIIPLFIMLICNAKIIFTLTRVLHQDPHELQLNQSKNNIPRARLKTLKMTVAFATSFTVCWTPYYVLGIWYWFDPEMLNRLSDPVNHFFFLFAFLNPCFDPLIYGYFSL
Procedure, shortened: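 Membranes for radioligand binding were prepared from RBL cells stably expressing human GnRH receptor, which were lysed by nitrogen cavitation at 900 psi, 4° C. Membranes from HEK293 cells stably transfected with human receptor were held in 10 mM HEPES pH 7.5, 150 mM NaCl, 0.1% BSA. Transiently transfected COS-7 cells were used for other species.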

SMILES	Ki [nM]
CN(C(=O)c1ccc(Cl)c(-c2nc3c(F)c(F)c(F)c(F)c3cc2C#N)c1)c1ccccc1OCCCC(=O)O [33-3]	≤ 100
COc1ccccc1N(C)C(=O)c1cc(-c2cnc(C(F)(F)F)cc2C#N)c(Cl)cc1OCCCC(=O)O [34-1, 4-{5-chloro-4-(4-cyano-6-trifluoromethyl-pyridin-3-yl)-2-[(2-methoxy-phenyl)-methyl-carbamoyl]-phenoxy}-butyric acid]	≤ 100
COc1cc(Cl)ccc1N(C)C(=O)c1cc(-c2cnc(C(F)(F)F)cc2C#N)c(Cl)cc1OCCCC(=O)O [34-2]	≤ 100
CN(C(=O)c1cc(-c2cnc(C(F)(F)F)cc2C#N)c(Cl)cc1OCCCC(=O)O)c1ccccc1OC(F)(F)F [34-3]	≤ 100
COc1cc(F)ccc1N(C)C(=O)c1cc(-c2cnc(C(F)(F)F)cc2C#N)c(Cl)cc1OCCCC(=O)O [34-4]	≤ 100
COCc1ccccc1N(C)C(=O)c1cc(-c2cnc(C(F)(F)F)cc2C#N)c(Cl)cc1OCCCC(=O)O [34-5]	≤ 100
COc1c(Cl)cccc1N(C)C(=O)c1cc(-c2cnc(C(F)(F)F)cc2C#N)c(Cl)cc1OCCCC(=O)O [34-6]	≤ 100
COc1ccc(Cl)cc1N(C)C(=O)c1cc(-c2cnc(C(F)(F)F)cc2C#N)c(Cl)cc1OCCCC(=O)O [34-7]	≤ 100
CN(C(=O)c1cc(-c2cnc(C(F)(F)F)cc2C#N)c(Cl)cc1OCCCC(=O)O)c1ccccc1 [34-8]	≤ 100
COCc1cc(Cl)ccc1N(C)C(=O)c1cc(-c2cnc(C(F)(F)F)cc2C#N)c(Cl)cc1OCCCC(=O)O [34-9]	≤ 100
COC(=O)c1ccccc1N(C)C(=O)c1cc(-c2cnc(C(F)(F)F)cc2C#N)c(Cl)cc1OCCCC(=O)O [34-10]	≤ 100
COc1ccc(C)cc1N(C)C(=O)c1cc(-c2cnc(C(F)(F)F)cc2C#N)c(Cl)cc1OCCCC(=O)O [34-12]	≤ 100
COc1ccc(OC)c(N(C)C(=O)c2cc(-c3cnc(C(F)(F)F)cc3C#N)c(Cl)cc2OCCCC(=O)O)c1 [34-13]	≤ 100
CN(C(=O)c1cc(-c2cnc(C(F)(F)F)cc2C#N)c(Cl)cc1OCCCC(=O)O)c1ccccc1-c1cnco1 [34-15]	≤ 100
CN(C(=O)c1cc(-c2cnc(C(F)(F)F)cc2C#N)c(Cl)cc1OCCCC(=O)O)c1ccccc1-c1ccco1 [34-16]	≤ 100
CN(C(=O)c1cc(-c2cnc(C(F)(F)F)cc2C#N)c(Cl)cc1OCCCC(=O)O)c1ccccn1 [34-18]	≤ 100
COc1cccc(N(C)C(=O)c2cc(-c3cnc(C(F)(F)F)cc3C#N)c(Cl)cc2OCCCC(=O)O)n1 [34-19]	≤ 100
Cc1cccnc1N(C)C(=O)c1cc(-c2cnc(C(F)(F)F)cc2C#N)c(Cl)cc1OCCCC(=O)O [34-20]	≤ 100
CC(C)CCN(C)C(=O)c1cc(-c2cnc(C(F)(F)F)cc2C#N)c(Cl)cc1OCCCC(=O)O [34-23]	≤ 100
COCCN(C)C(=O)c1cc(-c2cnc(C(F)(F)F)cc2C#N)c(Cl)cc1OCCCC(=O)O [34-24]	≤ 100
CN(CC1CC1)C(=O)c1cc(-c2cnc(C(F)(F)F)cc2C#N)c(Cl)cc1OCCCC(=O)O [34-25]	≤ 100
COc1cccc(F)c1N(C)C(=O)c1cc(-c2cnc(C(F)(F)F)cc2C#N)c(Cl)cc1OCCCC(=O)O [34-26]	≤ 100
COc1ccccc1N(C)C(=O)c1cc(-c2cnc(C(F)(F)F)cc2C#N)c(Cl)cc1OCCCc1nnn[nH]1 [35-1, 4-Chloro-5-(4-cyano-6-trifluoromethyl-pyridin-3-yl)-N-(2-methoxy-phenyl)-N-methyl-2-[3-(1H-tetrazol-5-yl)-propoxy]-benzamide]	≤ 100
CN(C(=O)c1ccc(Cl)c(-c2cnc(C(F)(F)F)cc2C#N)c1)c1ccccc1OCCC(=O)OCOC(=O)C(C)(C)C [36-1, 2,2-Dimethyl-propionic acid 3-(2-{[4-chloro-3-(4-cyano-6-trifluoromethyl-pyridin-3-yl)-benzoyl]-methyl-amino}-phenoxy)-propionyloxymethyl ester]	≤ 100
COc1ccccc1N(C)C(=O)c1cc(-c2cnc(C(F)(F)F)cc2C#N)c(Cl)cc1OCCCC(=O)OCOC(=O)C(C)(C)C [36-2, 4-{5-chloro-4-(4-cyano-6-trifluoromethyl-pyridin-3-yl)-2-[(2-methoxy-phenyl)-methyl-carbamoyl]-phenoxy}-butyric acid 2,2-dimethyl-propionyloxymethyl ester]	≤ 100
CC(OC(=O)CCOc1ccccc1N(C)C(=O)c1ccc(Cl)c(-c2cnc(C(F)(F)F)cc2C#N)c1)OC(=O)OC1CCCCC1 (centres unmarked) [37-1, 3-(2-{[4-Chloro-3-(4-cyano-6-trifluoromethyl-pyridin-3-yl)-benzoyl]-methyl-amino}-phenoxy)-propionic acid 1-cyclohexyloxycarbonyloxy-ethyl ester]	≤ 100
CC(C)OC(=O)OC(C)OC(=O)CCOc1ccccc1N(C)C(=O)c1ccc(Cl)c(-c2cnc(C(F)(F)F)cc2C#N)c1 (centres unmarked) [37-2, 3-(2-{[4-Chloro-3-(4-cyano-6-trifluoromethyl-pyridin-3-yl)-benzoyl]-methyl-amino}-phenoxy)-propionic acid 1-isopropoxycarbonyloxy-ethyl ester]	≤ 100
COc1ccccc1N(C)C(=O)c1cc(-c2cnc(C(F)(F)F)cc2C#N)c(Cl)cc1OCCCC(=O)OC(C)OC(=O)OC1CCCCC1 (centres unmarked) [37-3, 4-{5-chloro-4-(4-cyano-6-trifluoromethyl-pyridin-3-yl)-2-[(2-methoxy-phenyl)-methyl-carbamoyl]-phenoxy}-butyric acid 1-cyclohexyloxycarbonyloxy-ethyl ester]	≤ 100
COc1ccccc1N(C)C(=O)c1cc(-c2cnc(C(F)(F)F)cc2C#N)c(Cl)cc1OCCCC(=O)OC(C)OC(=O)OC(C)C (centres unmarked) [37-4, 4-{5-chloro-4-(4-cyano-6-trifluoromethyl-pyridin-3-yl)-2-[(2-methoxy-phenyl)-methyl-carbamoyl]-phenoxy}-butyric acid 1-isopropoxycarbonyloxy-ethyl ester]	≤ 100

The remaining lines, values ahead:

Ki [nM]	SMILES
≤ 100	COc1cc(Cl)c(-c2cnc(C(F)(F)F)cc2C#N)cc1C(=O)N(C)c1ccccc1OC [38-1, 4-Chloro-5-(4-cyano-6-trifluoromethyl-pyridin-3-yl)-2-methoxy-N-(2-methoxy-phenyl)-N-methyl-benzamide]
≤ 100	COc1cc(Cl)c(-c2cnc(C(F)(F)F)cc2C#N)cc1C(=O)N(C)c1c(C)cccc1C [39-1, 4-Chloro-5-(4-cyano-6-trifluoromethyl-pyridin-3-yl)-N-(2,6-dimethyl-phenyl)-2-methoxy-N-methyl-benzamide]
≤ 100	COC(=O)c1ccccc1N(C)C(=O)c1cc(-c2cnc(C(F)(F)F)cc2C#N)c(Cl)cc1OC [39-2]
≤ 100	COc1cc(Cl)c(-c2cnc(C(F)(F)F)cc2C#N)cc1C(=O)N(C)c1c(OC)cccc1OC [39-3]
≤ 100	COc1cc(Cl)c(-c2cnc(C(F)(F)F)cc2C#N)cc1C(=O)N(C)c1c(F)cccc1OC [39-4]
≤ 100	COc1cc(Cl)c(-c2cnc(C(F)(F)F)cc2C#N)cc1C(=O)N(C)c1cc(F)ccc1OC [39-5]
≤ 100	COc1cc(Cl)c(-c2cnc(C(F)(F)F)cc2C#N)cc1C(=O)N(C)c1c(F)cccc1F [39-6]
≤ 100	COc1cc(Cl)c(-c2cnc(C(F)(F)F)cc2C#N)cc1C(=O)N(C)c1ccccc1 [39-7]
≤ 100	COC(=O)c1ccc(Cl)cc1N(C)C(=O)c1cc(-c2cnc(C(F)(F)F)cc2C#N)c(Cl)cc1OC [39-8]
≤ 100	COc1cc(Cl)c(-c2cnc(C(F)(F)F)cc2C#N)cc1C(=O)N(C)c1ccccc1OCC(F)(F)F [39-9]
≤ 100	COc1cc(Cl)c(-c2cnc(C(F)(F)F)cc2C#N)cc1C(=O)N(C)c1c(C)cccc1OC [39-10]
≤ 100	COc1cc(Cl)c(-c2cnc(C(F)(F)F)cc2C#N)cc1C(=O)N(C)c1cc(F)ccc1C [39-11]
≤ 100	COc1cc(Cl)c(-c2cnc(C(F)(F)F)cc2C#N)cc1C(=O)N(C)c1ccccc1-c1cnco1 [39-12]
≤ 100	COc1cc(Cl)c(-c2cnc(C(F)(F)F)cc2C#N)cc1C(=O)N(C)c1ncccc1OC [39-13]
≤ 100	COc1cc(Cl)c(-c2cnc(C(F)(F)F)cc2C#N)cc1C(=O)N(C)c1ccccn1 [39-14]
≤ 100	COc1cc(Cl)c(-c2cnc(C(F)(F)F)cc2C#N)cc1C(=O)N(C)Cc1ccccc1 [39-15]
≤ 100	COc1cc(Cl)c(-c2cnc(C(F)(F)F)cc2C#N)cc1C(=O)N(C)Cc1ccccc1F [39-16]
≤ 100	COc1ccccc1CN(C)C(=O)c1cc(-c2cnc(C(F)(F)F)cc2C#N)c(Cl)cc1OC [39-17]
≤ 100	COc1cccc(CN(C)C(=O)c2cc(-c3cnc(C(F)(F)F)cc3C#N)c(Cl)cc2OC)c1 [39-18]
≤ 100	COc1cc(Cl)c(-c2cnc(C(F)(F)F)cc2C#N)cc1C(=O)N(C)c1cnccc1OC [39-20]
≤ 100	COc1cc(Cl)c(-c2cnc(C(F)(F)F)cc2C#N)cc1C(=O)N(C)c1ncccc1C [39-21]
≤ 100	COc1cccc(N(C)C(=O)c2cc(-c3cnc(C(F)(F)F)cc3C#N)c(Cl)cc2OC)n1 [39-23]
≤ 100	CN(C(=O)c1ccc(Cl)c(-c2cnc(C(F)(F)F)cc2C#N)c1)c1ccccc1OCCc1n[nH]c(=O)[nH]1 [40-1, 4-Chloro-3-(4-cyano-6-trifluoromethyl-pyridin-3-yl)-N-methyl-N-{2-[2-(5-oxo-4,5-dihydro-1H-[1,2,4]triazol-3-yl)-ethoxy]-phenyl}-benzamide]
≤ 100	CN(C(=O)c1ccc(Cl)c(-c2cnc(C(F)(F)F)cc2C#N)c1)c1ccccc1OCCNC(=O)NS(C)(=O)=O [41-1, 4-Chloro-3-(4-cyano-6-trifluoromethyl-pyridin-3-yl)-N-{2-[2-(3-methylsulfonyl-ureido)-ethoxy]-phenyl}-N-methyl-benzamide]
